Source: patent EP2326328B1, “USE OF DIHYDRALAZINE FOR THE TREATMENT OF DISEASES RELATED TO ELEVATED SEMICARBAZIDE SENSITIVE AMINE-OXIDASE (SSAO) ACTIVITY” (Semmelweis Egyetem, priority 2008, dated 2010)

Target: T1, SSAO (Homo sapiens, UniProt Q16853)
T1 construct: from tissue; host or cells: human serum
T1 sequence (Q16853 29-763 limits assumed): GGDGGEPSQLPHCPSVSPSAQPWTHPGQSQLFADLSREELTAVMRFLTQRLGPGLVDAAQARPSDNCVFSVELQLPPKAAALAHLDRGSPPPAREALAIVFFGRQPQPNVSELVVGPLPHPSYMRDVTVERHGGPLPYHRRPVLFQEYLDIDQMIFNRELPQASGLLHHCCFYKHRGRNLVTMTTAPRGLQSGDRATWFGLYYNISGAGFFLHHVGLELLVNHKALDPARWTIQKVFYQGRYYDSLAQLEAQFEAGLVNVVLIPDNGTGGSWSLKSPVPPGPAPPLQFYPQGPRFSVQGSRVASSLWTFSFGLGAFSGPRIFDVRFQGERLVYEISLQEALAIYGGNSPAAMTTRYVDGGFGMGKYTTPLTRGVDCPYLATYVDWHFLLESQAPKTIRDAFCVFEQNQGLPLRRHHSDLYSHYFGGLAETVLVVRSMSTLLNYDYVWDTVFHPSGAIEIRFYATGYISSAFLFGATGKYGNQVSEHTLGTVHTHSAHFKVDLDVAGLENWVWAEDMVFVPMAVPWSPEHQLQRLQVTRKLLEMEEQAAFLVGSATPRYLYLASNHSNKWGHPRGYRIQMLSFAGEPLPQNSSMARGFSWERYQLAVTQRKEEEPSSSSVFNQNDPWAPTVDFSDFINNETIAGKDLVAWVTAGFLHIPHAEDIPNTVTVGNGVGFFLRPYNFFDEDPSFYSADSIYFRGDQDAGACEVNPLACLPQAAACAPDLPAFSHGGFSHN
Assay: serum SSAO activity of treated type 2 diabetic patients
Format: in vivo
Details: for SSAO activity (pmol/mg protein/hour): serum, oral 14.5 mg dihydralazine sulphate twice daily
Description: A radiochemical procedure (Yu P.H., Zuo D.M., Biochem. Pharmacol., 1992, 43, 307-312) was adapted for determining SSAO activities in the human serum. It is based on the determination of the quantity of ^14C-benzaldehyde formed by the enzyme reaction of ^14C-benzylamine.
The preparations containing the serum and the dihydralazine enzyme inhibitor were pre-incubated at room temperature for 20 min. The enzyme reaction was started with ^14C-benzylamine substrate (- 200000 dpm/tube). The samples obtained accordingly were incubated at 37°C for 40 min, then the reaction was stopped by adding 200 µl 2M citric acid solution. In case of the 'blank' sample, citric acid solution was added before adding the substrate, therefore, in this case no enzyme reaction took place. The samples were extracted with 1000 µl 1:1 toluene - ethyl acetate mixture, by vortex method, then centrifuged (2500 g / 5 min). The enzyme activity was determined by liquid scintillation counting (600 µl supernatant + 5ml Aquasafe), using the formula below: ([dpm(sample)-dpm0ʹ] x 1.6 x 10 x 1.5)/(measured substrate activity dpm x mg protein) [formula] standing for: 1.6: extraction volume; 10: molar activity; 1.5: correction factor for the incubation time; dpm: disintegrations per minute (unit of radioactivity)
After giving their informed consent, patients participating in the study were treated for 56 days taking ½ tablet twice daily of a pharmaceutical composition containing 28.9 mg dihydralazine sulphate (i.e. the ½ tablet contained 14.5 mg dihydralazine sulphate).
Serum SSAO activity was determined from blood samples collected before starting the treatment, and at the 14., 28. and 56. day of the treatment. The blood samples were centrifuged and the supernatant was stored at - 80°C until the measurement of the enzyme activity. SSAO activity was determined applying the method described in the example above.

For `NNc1nnc(NN)c2ccccc12` [dihydralazine], the “serum SSAO activity” value (2 treated type 2 diabetic patients, oral 14.5 mg dihydralazine sulphate twice daily for 56 days) was “parallel decrease of serum SSAO activity”, the “SSAO activity (pmol/mg protein/hour)” value (1. patient, 14. day, before treatment 93.02) was 62.42 pmol/mg protein/hour and the “SSAO activity (pmol/mg protein/hour)” value (1. patient, 28. day, before treatment 93.02) was 85.73 pmol/mg protein/hour. The “SSAO activity (pmol/mg protein/hour)” value (1. patient, 56. day, before treatment 93.02) was 82.41 pmol/mg protein/hour, the “SSAO activity (pmol/mg protein/hour)” value (2. patient, 14. day, before treatment 167.56) was 127.96 pmol/mg protein/hour and the “SSAO activity (pmol/mg protein/hour)” value (2. patient, 28. day, before treatment 167.56) was 186.36 pmol/mg protein/hour. For the same compound, the “SSAO activity (pmol/mg protein/hour)” value (2. patient, 56. day, before treatment 167.56) was 105.1 pmol/mg protein/hour.
